The record followed here is ChEMBL document CHEMBL4834452, “Discovery of a novel series of substituted quinolines acting as anticancer agents and selective EGFR blocker: Molecular docking study” (Bioorg Med Chem Lett, 2021).

In general, IC50 refers to the concentration that gives 50% inhibition.

The subject of one assay is PC-3. Briefly: Anticancer activity against human PC-3 cells assessed as cell growth inhibition measured by MTT assay. The format is functional, cell-based. Background: Formazan colour is commonly taken as a measure of viable cells.
The next assay has as its system HepG2. Briefly: Anticancer activity against human HepG2 cells assessed as cell growth inhibition measured by MTT assay. Type of assay: functional, cell-based.
In the next assay the test system is MCF7. Nature of the assay: Anticancer activity against human MCF7 cells assessed as cell growth inhibition measured by MTT assay. Type of assay: functional, cell-based.
The next assay has as its system HCT-116. Nature of the assay: Anticancer activity against human HCT-116 cells assessed as cell growth inhibition measured by MTT assay. Type of assay: functional, cell-based.
Assay [1] concerns the target Epidermal growth factor receptor (Homo sapiens, UniProt P00533). Briefly: Inhibition of recombinant wild type EGFR-TK (unknown origin) by ELISA. In general terms: In an ELISA, binding on a coated surface is turned into a signal by an enzyme label.

Chain of Epidermal growth factor receptor (P00533 whole entry): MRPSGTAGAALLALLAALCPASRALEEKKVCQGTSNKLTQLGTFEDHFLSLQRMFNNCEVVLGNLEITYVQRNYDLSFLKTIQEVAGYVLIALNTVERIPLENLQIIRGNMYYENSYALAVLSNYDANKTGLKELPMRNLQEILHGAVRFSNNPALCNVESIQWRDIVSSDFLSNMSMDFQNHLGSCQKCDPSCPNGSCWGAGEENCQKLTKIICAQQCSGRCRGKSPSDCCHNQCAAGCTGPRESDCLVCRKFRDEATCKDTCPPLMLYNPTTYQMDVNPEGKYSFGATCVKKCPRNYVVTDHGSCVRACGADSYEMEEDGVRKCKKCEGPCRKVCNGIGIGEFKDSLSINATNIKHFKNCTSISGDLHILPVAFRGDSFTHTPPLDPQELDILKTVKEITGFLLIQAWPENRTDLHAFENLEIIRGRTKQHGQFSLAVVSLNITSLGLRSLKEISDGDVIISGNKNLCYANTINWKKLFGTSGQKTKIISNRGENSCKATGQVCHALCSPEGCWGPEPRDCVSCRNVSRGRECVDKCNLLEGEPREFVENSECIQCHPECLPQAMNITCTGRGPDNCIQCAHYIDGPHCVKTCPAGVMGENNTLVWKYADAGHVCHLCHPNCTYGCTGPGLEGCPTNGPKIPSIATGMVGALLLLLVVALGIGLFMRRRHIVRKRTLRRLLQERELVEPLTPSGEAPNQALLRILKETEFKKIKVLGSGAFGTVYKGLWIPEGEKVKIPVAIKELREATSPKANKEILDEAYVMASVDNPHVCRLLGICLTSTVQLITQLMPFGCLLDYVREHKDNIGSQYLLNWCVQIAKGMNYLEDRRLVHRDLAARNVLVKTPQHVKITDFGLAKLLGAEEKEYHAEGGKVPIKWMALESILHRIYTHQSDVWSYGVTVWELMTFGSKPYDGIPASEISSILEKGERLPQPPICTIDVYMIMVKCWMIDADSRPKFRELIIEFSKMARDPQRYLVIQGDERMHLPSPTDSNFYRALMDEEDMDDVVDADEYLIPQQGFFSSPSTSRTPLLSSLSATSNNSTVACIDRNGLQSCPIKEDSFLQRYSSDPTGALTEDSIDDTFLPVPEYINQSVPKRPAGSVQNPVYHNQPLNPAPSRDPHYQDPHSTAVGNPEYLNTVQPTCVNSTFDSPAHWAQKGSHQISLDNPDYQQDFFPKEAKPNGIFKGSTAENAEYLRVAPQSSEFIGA

As to `COc1ccc(C(Nc2ccc(Cl)cc2)n2c(=O)ccc3cc(O)ccc32)cc1` (centres undefined), the IC50 amounted to 35.2 µM in the assay on PC-3; 21.5 µM with HepG2; 11.3 µM in the assay on MCF7; 20.4 µM with HCT-116; 1.13 µM in assay [1].
`COc1ccc(C(Nc2ccc(Br)cc2)n2c(=O)ccc3cc(O)ccc32)cc1` (centres undefined): the half-maximal inhibitory concentration (IC50) in the assay on PC-3 worked out at 32.9 µM; in the assay on HepG2 it was 18.3 µM; with MCF7, 10.8 µM; with HCT-116, 19.6 µM; in assay [1] it was 0.96 µM.
As for `COc1ccc(NC(c2ccc(OC)cc2)n2c(=O)ccc3cc(O)ccc32)cc1` (centres undefined), the 50% inhibitory concentration (IC50) in the assay on PC-3 was 85.3 µM; with HepG2 it was 61.4 µM; in the assay on MCF7, 49.2 µM; in the assay with HCT-116, 73.3 µM; in assay [1] it was 5.29 µM.
As for `COc1ccc(C(Nc2ccc([N+](=O)[O-])cc2)n2c(=O)ccc3cc(O)ccc32)cc1` (centres undefined), the half-maximal inhibitory concentration (IC50) with PC-3 is 48 µM; in the assay with HepG2, 29.7 µM; with MCF7, 21.1 µM; in the assay on HCT-116 it was 36.6 µM; in assay [1] it was 1.35 µM.
`COc1ccc(C(Nc2ccccc2)n2c(=O)ccc3cc(O)ccc32)cc1` (centres undefined): the 50% inhibitory concentration (IC50) in the assay with PC-3 worked out at 79.7 µM; in the assay with HepG2, 46.3 µM; with MCF7, 35.1 µM; in the assay with HCT-116, 53.7 µM; in assay [1] it was 14.3 µM.
With `C#Cc1cccc(Nc2ncnc3cc(OCCOC)c(OCCOC)cc23)c1` [ERLOTINIB], the half-inhibitory concentration (IC50) stood at 26.9 µM with PC-3, 17.7 µM with HepG2, 11.6 µM in the assay on MCF7 and 20.5 µM with HCT-116.
